Measurements: ChEMBL document CHEMBL4706743, “2-Cyanoisonicotinamide Conjugation: A Facile Approach to Generate Potent Peptide Inhibitors of the Zika Virus Protease” (ACS Med Chem Lett, 2021)

Test: Inhibition of Zika virus NS2B (45 to 96 residues)/N-terminal thrombin cleavage fused and His6-tagged NS3 (1 to 177 residues) protease expressed in Escherichia coli using Bz-Nle-Lys-Lys-Arg-AMC as substrate preincubated for 10 mins followed by substrate addition and measured for 5 mins by fluorophotometric analysis

Row | Structure (SMILES) | Ki
1 | N=C(N)NCCC[C@@H]1NC(=O)[C@H](CCCCN)NC(=O)CNC(=O)[C@@H]2CSC(=N2)c2cc(ccn2)C(=O)NCCC[C@@H](C(N)=O)NC(=O)[C@H](CCCCN)NC1=O | 1.76 µM
2 | N=C(N)NCCC[C@@H]1NC(=O)[C@H](CCCCN)NC(=O)CNC(=O)[C@@H]2CSC(=N2)c2cc(ccn2)C(=O)NCC[C@@H](C(N)=O)NC(=O)[C@H](CCCCN)NC1=O | 14.3 µM
